Assay results: the NIST ThermoML archive (doi:10.1021/je3003578)
± gives the expanded uncertainty stated by the source.

How the values were obtained:
[1] = 101 kPa, Liquid
[2] = xn = mol fraction of the nth substance listed; settings: 283.15 K; 101 kPa; Liquid; x2 = 0

| Structure (SMILES) | mass density ([1]; 283.15 K) [kg/m3] | mass density ([1]; 288.15 K) [kg/m3] | mass density ([1]; 293.15 K) [kg/m3] | mass density ([1]; 298.15 K) [kg/m3] | mass density ([1]; 303.15 K) [kg/m3] | mass density [2] [kg/m3] |
| --- | --- | --- | --- | --- | --- | --- |
| CCOCCCN [3-ethoxy-1-propanamine] | 865.36 ± 0.82 | 860.63 ± 0.83 | 855.715 ± 0.84 | 851.018 ± 0.86 | 846.075 ± 0.87 | – |
| O [water] + CCOCCCN | – | – | – | – | – | 999.699 ± 0.3 |
